Source: patent US8088761B2, “Enzyme inhibitors” (Cancer Research Technology Limited, priority 2005, dated 2012)

What was measured:
[1] = biological target: T1, Aurora-A (Homo sapiens, UniProt O14965); assay: Flashplate Aurora A enzyme inhibition assay; assay type: biochemical; settings: Flashplate assay; IC50 range; read-out: Aurora-A inhibition
T1 sequence (O14965 1-403): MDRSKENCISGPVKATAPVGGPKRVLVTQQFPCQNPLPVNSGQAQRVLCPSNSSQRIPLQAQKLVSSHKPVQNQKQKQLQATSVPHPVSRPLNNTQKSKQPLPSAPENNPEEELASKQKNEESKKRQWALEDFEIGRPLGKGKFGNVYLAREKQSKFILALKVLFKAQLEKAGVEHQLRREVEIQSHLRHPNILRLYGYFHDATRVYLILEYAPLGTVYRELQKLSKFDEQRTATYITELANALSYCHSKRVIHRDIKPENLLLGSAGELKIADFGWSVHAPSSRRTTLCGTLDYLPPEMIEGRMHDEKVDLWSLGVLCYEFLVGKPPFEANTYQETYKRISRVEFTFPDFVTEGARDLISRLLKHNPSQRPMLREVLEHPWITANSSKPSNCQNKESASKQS
Protocol: Flashplate® Assay for Identification and Evaluation of Aurora-A Inhibitors
On this assay 384-well Basic Flashplate® (SMP400E, PerkinElmer) as solid assay platform was used. The plates were coated overnight at 4° C. with […] at 100 μg/ml in PBS buffer and used after being washed twice with PBS. 5 μl of compound in 2% DMSO was added to each well followed by 15 μl master mix of kinase buffer (50 mM Tris pH 7.5, 10 mM NaCl, 2.5 mM MgCl2, 1 mM […], 20 μM ATP, and 0.025 μCi/μl ^33P-ATP). Finally, 250 ng per well of Aurora-A enzyme was added. The plate was shaken for approximately 2 min on a flat-bed plate shaker (Wellmix, Denley, UK) and incubated for 2 hours at room temperature. The reaction was stopped by washing the plate twice on a 16-pin wash (ELX50 BioTek Instruments Ltd., Northstar, Bedford, UK) with 10 mM sodium pyrophosphate. The plate was then read on a TopCount-NX™ (PerkinElmer Life Sciences UK Ltd., Hounslow, UK).

[2] = test system: HCT116 cells; assay: Cell viability assay (MTT) in HCT116 cell line; assay type: cell-based; settings: Homo sapiens, HCT-116, 72 hrs, IC50 range, read-out: HCT116 cell growth inhibition
Protocol: Cell Viability Assay: Determination of IC50 of Aurora Inhibitors in HCT116 Cell Line Using MTT Assay. The effects of compounds of the Examples on cellular proliferation were determined using the MTT assay according to manufacturer's instructions (Sigma). Briefly, the human colon tumour cells HCT116, were seeded in triplicate into 96-well plates at 2500 cells/well 24 hours before treatment with a range of concentrations of Aurora inhibitors (0-50 μM). After 72 hrs, 15 μl/well of 0.5% 3-(4,5-dimethylthiazol-2-yl)-2,5-diphenyltetrazolium bromide (MTT) was added to the cells for 4 hrs at 37° C., the dye-stained viable cells were extracted by adding 150 μl/well of dimethyl sulphoxide (DMSO). […] The IC50 was calculated using the Prism software.

`CC(C)(C)OC(=O)NCCc1nc2c(N3CCN(Cc4cccnc4)CC3)c(Br)cnc2[nH]1` [Example 97, tert-Butyl 2-(6-bromo-7-(4-(pyridin-3-ylmethyl)piperazin-1-yl)-3H-imidazo[4,5-b]pyridin-2-yl)ethylcarbamate] was tested, and the IC50 [1] was under 0.5 µM and the IC50 [2] was 2 to 50 µM.

`CN(C)c1ccc(-c2nc3c(N4CCN(CC(=O)N(C)c5nccs5)CC4)c(Br)cnc3[nH]2)cc1` [Example 89, 2-(4-(6-Bromo-2-(4-(dimethylamino)phenyl)-3H-imidazo[4,5-b]pyridin-7-yl)piperazin-1-yl)-N-methyl-N-(thiazol-2-yl)acetamide] showed an IC50 [1] of under 0.5 µM and an IC50 [2] of under 0.5 µM.

Work on `Clc1ccc(CN2CCN(c3c(Br)cnc4[nH]c(-c5ccc(CN6CCOCC6)cc5)nc34)CC2)cc1` [Example 69, 6-Bromo-7-[4-(4-chloro-benzyl)-piperazin-1-yl]-2-(4-morpholin-4-ylmethyl-phenyl)-3H-imidazo[4,5-b]pyridine] yielded an IC50 [1] of under 0.5 µM and an IC50 [2] of 0.5 to 2 µM.

Work on `NCc1ccc(-c2nc3c(N4CCN(Cc5cccnc5)CC4)c(Br)cnc3[nH]2)cc1` [Example 60, (4-(6-Bromo-7-(4-(pyridin-3-ylmethyl)piperazin-1-yl)-3H-imidazo[4,5-b]pyridin-2-yl)phenyl)methanamine] yielded an IC50 [1] of under 0.5 µM and an IC50 [2] of 0.5 to 2 µM.

`O=C(CN1CCN(c2c(Br)cnc3[nH]cnc23)CC1)Nc1nccs1` [Example 10, 2-[4-(6-Bromo-3H-imidazo[4,5-b]pyridin-7-yl)-piperazin-1-yl]-N-thiazol-2-yl-acetamide] gave an IC50 [1] of 0.5 to 2 µM and an IC50 [2] of 2 to 50 µM.

In the case of `Clc1cnc2[nH]c(-c3ccc(N4CCNCC4)cc3)nc2c1N1CCN(Cc2cccnc2)CC1` [Example 137, 6-Chloro-2-(4-(piperazin-1-yl)phenyl)-7-(4-(pyridin-3-ylmethyl)piperazin-1-yl)-3H-imidazo[4,5-b]pyridine], the IC50 [1] is reported as under 0.5 µM and the IC50 [2] is reported as 0.5 to 2 µM.

In the case of `O=C(CN1CCN(c2c(Cl)cnc3[nH]c(-c4ccc(Cn5cccn5)cc4)nc23)CC1)Nc1nccs1` [Example 84, 2-(4-(2-(4-((1H-Pyrazol-1-yl)methyl)phenyl)-6-chloro-3H-imidazo[4,5-b]pyridin-7-yl)piperazin-1-yl)-N-(thiazol-2-yl)acetamide], the IC50 [1] is reported as under 0.5 µM and the IC50 [2] is reported as under 0.5 µM.

`O=C(CN1CCN(c2c(Cl)cnc3[nH]c(-c4cccc(OCCN5CCOCC5)c4)nc23)CC1)Nc1nccs1` [Example 185, 2-(4-(6-Chloro-2-(3-(2-morpholinoethoxy)phenyl)-3H-imidazo[4,5-b]pyridin-7-yl)piperazin-1-yl)-N-(thiazol-2-yl)acetamide] gave an IC50 [1] of under 0.5 µM and an IC50 [2] of under 0.5 µM.

For `COc1ccc(-c2nc3c(N4CCN(Cc5ccc(F)cc5)CC4)c(Br)cnc3[nH]2)cc1` [Example 147, 6-Bromo-7-(4-(4-fluorobenzyl)piperazin-1-yl)-2-(4-methoxyphenyl)-3H-imidazo[4,5-b]pyridine], the IC50 [1] was under 0.5 µM and the IC50 [2] was 2 to 50 µM.

In the case of `NCc1ccc(-c2nc3c(N4CCC(Cc5ccccc5)CC4)c(Br)cnc3[nH]2)cc1` [Example 133, (4-(7-(4-Benzylpiperidin-1-yl)-6-bromo-3H-imidazo[4,5-b]pyridin-2-yl)phenyl)methanamine], the IC50 [1] is reported as under 0.5 µM and the IC50 [2] is reported as 0.5 to 2 µM.

Molecule `COc1ccc(-c2nc3c(N4CCN(Cc5cn(C)cn5)CC4)c(Br)cnc3[nH]2)cc1` [Example 168, 6-Bromo-2-(4-methoxyphenyl)-7-(4-((1-methyl-1H-imidazol-4-yl)methyl)piperazin-1-yl)-3H-imidazo[4,5-b]pyridine] has an IC50 [1] of under 0.5 µM and an IC50 [2] of 2 to 50 µM.

Work on `O=C(CN1CCN(c2c(Cl)cnc3[nH]c(-c4ccc5c(c4)OCCO5)nc23)CC1)Nc1nccs1` [Example 87, 2-{4-[6-Chloro-2-(2,3-dihydro-benzo[1,4]dioxin-6-yl)-3H-imidazo[4,5-b]pyridin-7-yl]-piperazin-1-yl}-N-thiazol-2-yl-acetamide] yielded an IC50 [1] of under 0.5 µM and an IC50 [2] of 0.5 to 2 µM.

`O=S1(=O)CCN(c2ccc(-c3nc4c(N5CCN(Cc6cccnc6)CC5)c(Br)cnc4[nH]3)cc2)CC1` [Example 115, 4-(4-(6-Bromo-7-(4-(pyridin-3-ylmethyl)piperazin-1-yl)-3H-imidazo[4,5-b]pyridin-2-yl)phenyl)-1,1-dioxothiomorpholine] was tested, and the IC50 [1] was under 0.5 µM and the IC50 [2] was 0.5 to 2 µM.

`NCc1nc2c(N3CCN(Cc4cccnc4)CC3)c(Br)cnc2[nH]1` [Example 100, (6-Bromo-7-(4-(pyridin-3-ylmethyl)piperazin-1-yl)-3H-imidazo[4,5-b]pyridin-2-yl)methanamine] was tested, and the IC50 [1] was 2 to 10 µM and the IC50 [2] was 2 to 50 µM.

`CN(C)c1ccc(-c2nc3c(N4CCN(CC(=O)N(C)c5ccccc5)CC4)c(Cl)cnc3[nH]2)cc1` [Example 3, 2-{4-[6-Chloro-2-(4-dimethylamino-phenyl)-3H-imidazo[4,5-b]pyridin-7-yl]-piperazin-1-yl}-N-methyl-N-phenyl-acetamide] showed an IC50 [1] of under 0.5 µM and an IC50 [2] of 2 to 50 µM.

`Cc1nc(CN2CCN(c3c(Br)cnc4[nH]c(-c5ccc(N6CCNCC6)cc5)nc34)CC2)cs1` [Example 163, 4-((4-(6-Bromo-2-(4-(piperazin-1-yl)phenyl)-3H-imidazo[4,5-b]pyridin-7-yl)piperazin-1-yl)methyl)-2-methylthiazole] was tested, and the IC50 [1] was under 0.5 µM and the IC50 [2] was under 0.5 µM.

Work on `Brc1cnc2[nH]c(-c3ccc(OCCN4CCOCC4)cc3)nc2c1N1CCN(Cc2ccncc2)CC1` [Example 82, 6-Bromo-2-[4-(2-morpholin-4-yl-ethoxy)-phenyl]-7-(4-pyridin-4-ylmethyl-piperazin-1-yl)-3H-imidazo[4,5-b]pyridine] yielded an IC50 [1] of under 0.5 µM and an IC50 [2] of under 0.5 µM.

Work on `COc1ccc(-c2nc3c(N4CCN(Cc5ccncc5)CC4)c(Cl)cnc3[nH]2)cc1` [Example 35, 6-Chloro-2-(4-methoxyphenyl)-7-(4-(pyridin-4-ylmethyl)piperazin-1-yl)-3H-imidazo[4,5-b]pyridine] yielded an IC50 [1] of under 0.5 µM and an IC50 [2] of 0.5 to 2 µM.

Work on `CN(C)c1ccc(-c2nc3c(N4CCN(CC(=O)Nc5nccs5)CC4)c(C#N)cnc3[nH]2)cc1` [Example 62, 2-(4-(6-Cyano-2-(4-(dimethylamino)phenyl)-3H-imidazo[4,5-b]pyridin-7-yl)piperazin-1-yl)-N-(thiazol-2-yl)acetamide] yielded an IC50 [1] of under 0.5 µM and an IC50 [2] of 0.5 to 2 µM.

For `COc1ccc(-c2nc3c(N4CCN(Cc5coc(C(C)C)n5)CC4)c(Br)cnc3[nH]2)cc1` [Example 145, 4-((4-(6-bromo-2-(4-methoxyphenyl)-3H-imidazo[4,5-b]pyridin-7-yl)piperazin-1-yl)methyl)-2-isopropyloxazole], the IC50 [1] was under 0.5 µM and the IC50 [2] was under 0.5 µM.

`CC(C)(C)OC(=O)NCc1ccc(-c2nc3c(N4CCC(Cc5ccccc5)CC4)c(Br)cnc3[nH]2)cc1` [Example 132, tert-Butyl 4-(7-(4-benzylpiperidin-1-yl)-6-bromo-3H-imidazo[4,5-b]pyridin-2-yl)benzylcarbamate] was tested, and the IC50 [1] was under 0.5 µM and the IC50 [2] was 2 to 50 µM.

In the case of `CN1CCN(Cc2cccc(-c3nc4c(N5CCN(Cc6cccnc6)CC5)c(Br)cnc4[nH]3)c2)CC1` [Example 58, 6-Bromo-2-(3-((4-methylpiperazin-1-yl)methyl)phenyl)-7-(4-(pyridin-3-ylmethyl)piperazin-1-yl)-3H-imidazo[4,5-b]pyridine], the IC50 [1] is reported as under 0.5 µM and the IC50 [2] is reported as 0.5 to 2 µM.

`CN(C)c1ccc(-c2nc3c(N4CCCN(Cc5ccc(F)cc5)CC4)c(Br)cnc3[nH]2)cc1` [Example 34, 4-(6-Bromo-7-(4-(4-fluorobenzyl)-1,4-diazepan-1-yl)-3H-imidazo[4,5-b]pyridin-2-yl)-N,N-dimethylaniline] showed an IC50 [1] of under 0.5 µM and an IC50 [2] of 2 to 50 µM.

`CN(C)c1ccc(-c2nc3c(N4CCN(CC(=O)N5CCCC5)CC4)c(Br)cnc3[nH]2)cc1` [Example 25, 2-(4-(6-Bromo-2-(4-(dimethylamino)phenyl)-3H-imidazo[4,5-b]pyridin-7-yl)piperazin-1-yl)-1-(pyrrolidin-1-yl)ethanone] showed an IC50 [1] of under 0.5 µM and an IC50 [2] of 2 to 50 µM.

Work on `Clc1cnc2[nH]c(-c3ccc(CN4CCNCC4)cc3)nc2c1N1CCN(Cc2cncnc2)CC1` [Example 141, 6-Chloro-2-(4-(piperazin-1-ylmethyl)phenyl)-7-(4-(pyrimidin-5-ylmethyl)piperazin-1-yl)-3H-imidazo[4,5-b]pyridine] yielded an IC50 [1] of under 0.5 µM and an IC50 [2] of 0.5 to 2 µM.
